Here are results for 2 substances from patent publication US12060588B2, “Methods of editing DNA methylation” (Whitehead Institute for Biomedical Research, priority 2016, dated 2024).

Assay [1] deals with Snrpn promoter (IG-DMR GFP/Pat reporter), skin dermal cells. In words: In vivo activation of the IG-DMR GFP/Pat reporter in mouse skin (lentiviral delivery). From the text: FIGS. 7A-7H depict targeted ex vivo and in vivo DNA methylation editing by dCas9-Tet1 to activate a silenced GFP reporter. FIG. 7A provides a schematic diagram illustrating the experimental procedure for the ex vivo activation of a silenced GFP reporter in mouse fibroblast cells. Mouse tail fibroblast cells were derived from a genetically modified mouse line carrying a paternal IG-DMR-Snrpn-GFP allele (IG-DMRGFP/Pat) in the Dlk1-Dio3 locus. The IG-DMR-Snrpn promoter on the paternal allele is hypermethylated so that the GFP reporter is constitutively silenced. The cultured fibroblast cells were infected with lentiviral vectors expressing dCas9-Tet1 and gRNAs to demethylate the Snrpn promoter and activate the GFP reporter. Cells are subject to imaging and FACS analysis. […] Stained in red for Cherry, green for GFP and DAPI for nuclei. Scale bar: 100 um. […] Brains were sliced and analyzed by immunohistochemical approaches. […] FIGS. 7G-7H provide quantification of the percentage of IG-DMR^GFP/Pat cells with GFP activation in Cherry (gRNAs) positive cells in the in vivo lentiviral delivery experiment in the brain (FIG. 7G) and in the skin epidemis (FIG. 7H). […]
FIGS. 14A-14F depict activation of IG-DMR^GFP/Pat reporter in mouse skin cells by dCas9-Tet1 mediated demethylation. […] Note red auto-fluorescence on the left edges of the epidermis. […]

The subject of assay [2] is Snrpn promoter (IG-DMR GFP/Pat reporter), neurons. Kind of assay: In vivo activation of the IG-DMR GFP/Pat reporter in mouse brain (stereotaxic lentiviral delivery). From the text: FIGS. 7A-7H depict targeted ex vivo and in vivo DNA methylation editing by dCas9-Tet1 to activate a silenced GFP reporter. FIG. 7A provides a schematic diagram illustrating the experimental procedure for the ex vivo activation of a silenced GFP reporter in mouse fibroblast cells. Mouse tail fibroblast cells were derived from a genetically modified mouse line carrying a paternal IG-DMR-Snrpn-GFP allele (IG-DMRGFP/Pat) in the Dlk1-Dio3 locus. The IG-DMR-Snrpn promoter on the paternal allele is hypermethylated so that the GFP reporter is constitutively silenced. […] Brains were sliced and analyzed by immunohistochemical approaches. […] FIGS. 7G-7H provide quantification of the percentage of IG-DMR^GFP/Pat cells with GFP activation in Cherry (gRNAs) positive cells in the in vivo lentiviral delivery experiment in the brain (FIG. 7G) and in the skin epidemis (FIG. 7H). […]
To investigate whether the DNA methylation status can be modified in vivo, we infected 3 epidermal sites on the ventral side of an IG-DMR^GFP/Pat transgenic mouse with the dCas9-Tet1 and Snrpn gRNAs (FIG. 14D). […] In addition we infected the brain of an IG-DMR^GFP/Pat transgenic mouse with lentiviral vectors using a stereotaxic setup and analyzed the effect on targeted DNA methylation in brain slices by confocal microscopy. […]

Turning to “dC-dT: dCas9 fused to an inactive mutant form of Tet1 (H1672Y, D1674A), SEQ ID NO: 160”, the “GFP reporter activation in infected (Cherry positive) skin dermal cells in vivo” value in assay [1] (with Snrpn gRNAs, lentiviral injection into dermal sites, 3 days) is listed as “did not activate GFP reporter expression”. For the same substance, the “GFP reporter activation efficiency in Cherry positive cells (neurons) of the brain in vivo” value in assay [2] (with Snrpn gRNAs, stereotaxic lentiviral injection, 3 days) is on record as “did not activate GFP reporter expression”.
In the case of “dCas9-Tet1: catalytically inactive Cas9 (dCas9) fused through NLS to the Tet1 catalytic domain, SEQ ID NO: 159; lentivirally expressed with gRNAs”, in assay [1] (with a scrambled gRNA), the “GFP reporter activation in infected skin dermal cells in vivo” value is given as “did not activate GFP reporter expression”. Moreover, the “GFP reporter activation in Cherry positive cells of the brain in vivo” value in assay [2] (with a scrambled gRNA) is “did not activate GFP reporter expression”.
